Source: patent US6406881B2 (priority 1999, dated 2002)

Key:
Escherichia coli = experiment: Mutant prevention concentration (MPC) against Escherichia coli; type: cell-based; settings: for WI (MPC/MIC): window index
Staphylococcus aureus = experiment: Mutant prevention concentration (MPC) against Staphylococcus aureus; type: cell-based; settings: for WI (MPC/MIC): window index

Row | Compound | MPC (MPC10^10) (Escherichia coli) | WI (MPC/MIC) (Escherichia coli) | MPC (MPC10^10) (Staphylococcus aureus) [μg/ml] | WI (MPC/MIC) (Staphylococcus aureus) | WI (MPC/MIC) (Staphylococcus aureus; listed as rifampicin) | WI (MPC/MIC) (Staphylococcus aureus; listed as chloramphenicol)
1 | CO[C@H]1/C=C/O[C@@]2(C)Oc3c(C)c(O)c4c(O)c(c(/C=N/N5CCN(C)CC5)c(O)c4c3C2=O)NC(=O)/C(C)=C\C=C\[C@H](C)[C@H](O)[C@@H](C)[C@@H](O)[C@@H](C)[C@H](OC(C)=O)[C@@H]1C [Rifampicin] | >4,000 μg/ml | >800 | 480 | 120,000 | greater than 120,000 | 
2 | NC[C@H]1O[C@H](O[C@H]2[C@H](O)[C@@H](O[C@H]3O[C@H](CO)[C@@H](O)[C@H](N)[C@H]3O)[C@H](N)C[C@@H]2N)[C@H](N)C[C@@H]1O [Tobramycin] | 25 μg/ml | 21 | 20 | 74 |  | 
3 | Penicillin | 300 μg/ml | 100 | 1 | 42 |  | 
4 | O=C(N[C@H](CO)[C@H](O)c1ccc([N+](=O)[O-])cc1)C(Cl)Cl [Chloramphenicol] | 12 μg/ml | 6.3 | 40 | 21 |  | about 21
5 | CCn1cc(C(=O)O)c(=O)c2cc(F)c(N3CCNCC3)cc21 [Norfloxacin] | 1.5 μg/ml | 33 | 22 | 26 |  | 
6 | CN[C@H](CC(C)C)C(=O)N[C@H]1C(=O)N[C@@H](CC(N)=O)C(=O)N[C@H]2C(=O)N[C@H]3C(=O)N[C@H](C(=O)N[C@H](C(=O)O)c4cc(O)cc(O)c4-c4cc3ccc4O)[C@H](O)c3ccc(c(Cl)c3)Oc3cc2cc(c3O[C@@H]2O[C@H](CO)[C@@H](O)[C@H](O)[C@H]2O[C@H]2C[C@](C)(N)[C@H](O)[C@H](C)O2)Oc2ccc(cc2Cl)[C@H]1O [Vancomycin] |  |  | 40 | 61 |  | 
